CC(C)C(=O)Nc1ccc([N+](=O)[O-])c(C(F)(F)F)c1
solubility (mole fraction)
Settings | 278.15 K | 283.15 K | 288.15 K | 293.15 K | 298.15 K | 303.15 K | 308.15 K | 313.15 K | 318.15 K | 323.15 K
in 1,4-dioxane | – | 0.108 | 0.127 | 0.151 | 0.177 | 0.203 | 0.231 | 0.262 | 0.299 | 0.348
in THF | 0.259 | 0.276 | 0.297 | 0.321 | 0.348 | 0.376 | 0.405 | 0.436 | 0.469 | 0.502
in acetone | 0.186 | 0.201 | 0.228 | 0.258 | 0.291 | 0.327 | 0.366 | 0.407 | 0.45 | 0.49
in acetonitrile | 0.0566 | 0.0711 | 0.0902 | 0.119 | 0.157 | 0.197 | 0.246 | 0.296 | 0.355 | 0.427
in ethanol | 0.0503 | 0.0556 | 0.063 | 0.0709 | 0.0797 | 0.0908 | 0.102 | 0.117 | 0.133 | 0.154
in ethyl acetate | 0.161 | 0.178 | 0.191 | 0.206 | 0.227 | 0.246 | 0.269 | 0.29 | 0.321 | 0.351
in isobutanol | 0.0307 | 0.0381 | 0.0487 | 0.0632 | 0.0776 | 0.0965 | 0.118 | 0.141 | 0.171 | 0.207
in isopropanol | 0.0539 | 0.0609 | 0.0692 | 0.0799 | 0.0918 | 0.105 | 0.121 | 0.139 | 0.161 | 0.182
in methanol | 0.0401 | 0.047 | 0.0555 | 0.0641 | 0.0757 | 0.0878 | 0.103 | 0.12 | 0.142 | 0.166
in methyl acetate | 0.141 | 0.157 | 0.179 | 0.208 | 0.24 | 0.275 | 0.312 | 0.35 | 0.396 | 0.447
in n-butanol | 0.049 | 0.0549 | 0.0622 | 0.0709 | 0.0797 | 0.0904 | 0.103 | 0.117 | 0.135 | 0.156
in n-propanol | 0.049 | 0.0547 | 0.0624 | 0.0698 | 0.0784 | 0.0889 | 0.101 | 0.115 | 0.132 | 0.15

Reference: BigSolDB 2.1
